Source: ChEMBL document CHEMBL1150723, “Traditional medicinal plants of Thailand, VIII. Isoflavonoids of Dalbergia candenatensis” (1987)
≈ marks a conversion by molar mass, not a printed value. Calls of active or inactive are those of the source. The calls are words filed in the database; no cut-off is given here.

Assays:
Assay type in all cases: functional
[1] = tested on: Staphylococcus aureus; assay: Antibacterial activity against Staphylococcus aureus ATCC 25923 after 16 hrs by microdilution assay; conditions: ATCC 25923, 16 h
[2] = tested on: Penicillium expansum; assay: Antifungal activity against Penicillium expansum ATCC 7861 after 3 days by microdilution assay
[3] = tested on: Trichophyton mentagrophytes; assay: Antifungal activity against Trichophyton mentagrophytes ATCC 9533 after 3 days by microdilution assay
[4] = tested on: P388; assay: Cytotoxicity against mouse P388 cells
[5] = tested on: Escherichia coli; assay: Antibacterial activity against Escherichia coli ATCC 25922 after 16 hrs by microdilution assay; conditions: ATCC 25922, 16 h
[6] = tested on: Aspergillus niger; assay: Antifungal activity against Aspergillus niger ATCC 6275 after 3 days by microdilution assay
[7] = tested on: Candida albicans; assay: Antifungal activity against Candida albicans ATCC 10259 after 3 days by microdilution assay
[8] = tested on: Bacillus subtilis; assay: Antibacterial activity against Bacillus subtilis ATCC 6633 after 16 hrs by microdilution assay; conditions: ATCC 6633, 16 h

Molecule	MIC [1] [µg/mL]	MIC ([2]; ATCC 7861, 72 h) [µg/mL]	MIC ([3]; ATCC 9533, 72 h) [µg/mL]	ED50 [4]	MIC [5] [µg/mL]	MIC ([6]; ATCC 6275, 72 h) [µg/mL]	MIC ([7]; ATCC 10259, 72 h) [µg/mL]	MIC [8] [µg/mL]	MIC [2] [µg/mL]	MIC [3] [µg/mL]	MIC [6] [µg/mL]	MIC [7] [µg/mL]	EC50 ([4]; read-out: ED50 (the source's name)) [µg/mL]
COC1=CC(=O)C(c2coc3cc(O)cc(O)c3c2=O)=CC1=O	> 100	> 100	100 (≈ 318 µM)	inactive	50 (≈ 159 µM)	> 100	> 100	100 (≈ 318 µM)	–	–	–	–	–
COc1ccc(-c2coc3cc(O)ccc3c2=O)cc1 [FORMONONETIN]	> 100	50 (≈ 186 µM)	> 100	–	100 (≈ 373 µM)	100 (≈ 373 µM)	> 100	> 100	–	–	–	–	–
COc1ccc([C@@H]2COc3cc(O)ccc3C2)c(O)c1	> 100	> 100	25 (≈ 91.8 µM)	–	50 (≈ 184 µM)	> 100	> 100	50 (≈ 184 µM)	–	–	–	–	–
CN(C)[C@@H]1C(O)=C(C(N)=O)C(=O)[C@@]2(O)C(O)=C3C(=O)c4c(O)cccc4[C@@](C)(O)[C@H]3C[C@@H]12 [TETRACYCLINE]	0.6 (≈ 1.35 µM)	–	–	–	1.2 (≈ 2.7 µM)	–	–	2.5 (≈ 5.63 µM)	–	–	–	–	–
NYSTATIN	–	–	–	–	–	–	–	–	6	3	6	1.5	–
COC1=CC(=O)C([C@@H]2COc3cc(O)ccc3C2)=CC1=O	6 (≈ 21 µM)	> 100	25 (≈ 87.3 µM)	–	6 (≈ 21 µM)	100 (≈ 349 µM)	50 (≈ 175 µM)	3 (≈ 10.5 µM)	–	–	–	–	0.5 (≈ 1.75 µM)
COc1ccc(C2COc3cc(O)ccc3C2)c(OC)c1O (racemic) [MUCRONULATOL(+/-)]	> 100	> 100	25 (≈ 82.7 µM)	–	50 (≈ 165 µM)	> 100	> 100	> 100	–	–	–	–	–
